Reference: US8192750B2, “Pharmaceutical composition for the treatment of otomycosis” (priority 2006, dated 2012)
Entries after “also recorded” stand apart in the source; their conditions may differ.

How the values were obtained:
[1] = cited from earlier work
[2] = solubility of griseofulvin in different solvents; format: physicochemical; details: mixtures with carriers

COC1=CC(=O)C[C@@H](C)[C@]12Oc1c(Cl)c(OC)cc(OC)c1C2=O [griseofulvin, Griseofulvin]
solubility in water [1]: insoluble in water | Solubility of griseofulvin in different solvents [2]: higher in admixture with high molecular weight substances, such as herbal agents (e.g. tea tree oil), but not in admixtures with saccharides or alcohol; also recorded: higher in mixtures with high molecular weight carriers such as herbal agents, but not with saccharides or alcohol
